Legend:
[1] = Metabolic stability in a cell-free assay (liver S9 fraction); format: in vitro ADME; conditions: pooled liver S9 fraction; human liver S9 fraction 1 mg/ml, NADPH regenerating system, UDPGA, PAPS, 37°C; inhibitor 1 μM; read-out: Inhibitor t1/2
Experimental: Compounds 7a, 8a, 16a, 19a, 22a, 27a and 27 were tested according to established method[33–35]For evaluation of phase I and II metabolic stability 1 μM compound was incubated with 1 mg/ml pooled mammalian liver S9 fraction (BD Gentest), 2 mM NADPH regenerating system, 1 mM UDPGA and 0.1 mM PAPS at 37°C for 0, 5, 15 and 60 minutes at a final volume of 100 μL. The incubation was stopped by precipitation of S9 enzymes with 2 volumes of cold acetonitrile containing internal standard. Concentration of the remaining test compound at the different time points was analyzed by LC-MS/MS and used to determine half-life (t1/2).

h17β-HSD2 = molecular target: T1, h17β-HSD2 (Homo sapiens, UniProt P37059); experiment: Inhibition of h17β-HSD2 in cell-free assay; format: biochemical; set-up: from tissue; host or cells: human placenta, microsomal fraction; conditions: for inhibition at 1 µM: read-out: % inh. at 1 μM h17β-HSD2; for s.f. (selectivity factor) = IC50(17β-HSD1)/IC50(17β-HSD2): human enzymes, cell-free
T1 sequence (P37059 1-387): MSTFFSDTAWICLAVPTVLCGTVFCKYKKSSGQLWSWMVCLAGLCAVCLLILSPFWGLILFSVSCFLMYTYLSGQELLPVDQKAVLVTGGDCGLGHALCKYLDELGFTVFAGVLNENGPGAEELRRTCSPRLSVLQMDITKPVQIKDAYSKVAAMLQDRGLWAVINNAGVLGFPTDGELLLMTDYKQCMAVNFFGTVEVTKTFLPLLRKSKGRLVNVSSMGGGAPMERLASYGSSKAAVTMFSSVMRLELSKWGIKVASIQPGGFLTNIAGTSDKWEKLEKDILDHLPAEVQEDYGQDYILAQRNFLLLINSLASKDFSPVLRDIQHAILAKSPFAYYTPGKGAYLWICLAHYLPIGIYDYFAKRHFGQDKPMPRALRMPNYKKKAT
Experimental: (§1) h17β-HSD2, h17β-HSD1, m17β-HSD2 and m17β-HSD1 cell-free assays were performed similarly, by incubating enzyme, tritiated substrate, cofactor and inhibitor, according to described procedures.
(§2) Cytosolic (h17β-HSD1) and microsomal (h17β-HSD2) fractions were obtained from human placenta according to previously described procedures. Fresh tissue was homogenized and the enzymes were separated from the mitochondria, cell membrane. Nucleus and other rests by fractional centrifugation at 1000 g, 10.000 g and 150.000 g. The pellet fraction containing the microsomal h17β-HSD2 was used for the determination of h17β-HSD2 inhibition, while h17β-HSD1 was obtained after precipitation with ammonium sulfate from the cytosolic fraction for use of testing of h17β-HSD1 inhibition. Aliquots containing h17β-HSD1 or h17β-HSD2 were stored frozen.
(§3) Inhibitory activities were evaluated following an established method with minor modifications. Briefly, the enzyme preparation was incubated with NAD^+ [1500 μM] in the presence of potential inhibitors at 37C in a phosphate buffer (50 mM) supplemented with 20% of glycerol and EDTA 1mM. Inhibitor stock solutions were prepared in DMSO. Final concentration of DMSO was adjusted to 1% in all samples. […] After 20 min, the incubation was stopped with HgCl2 and the mixture was extracted with ether. After evaporation, the steroids were dissolved in acetonitrile/water (45:55). […] Detection and quantification of the steroids were performed using a radioflow detector (Berthold Technologies, Bad Wildbad). […] Each value was calculated from at least two independent experiments.

h17β-HSD1 = molecular target: T2, h17β-HSD1 (Homo sapiens, UniProt P14061); experiment: Inhibition of h17β-HSD1 in cell-free assay; format: biochemical; conditions: human placental cytosolic fraction, substrate E1 [500 nM], cofactor NADH [500 μM]; for inhibition at 1 µM: read-out: % inh. at 1 μM h17β-HSD1
T2 construct: h17β-HSD1 was obtained after precipitation with ammonium sulfate from the cytosolic fraction; from tissue; host or cells: human placenta, cytosolic fraction
T2 sequence (P14061 1-328): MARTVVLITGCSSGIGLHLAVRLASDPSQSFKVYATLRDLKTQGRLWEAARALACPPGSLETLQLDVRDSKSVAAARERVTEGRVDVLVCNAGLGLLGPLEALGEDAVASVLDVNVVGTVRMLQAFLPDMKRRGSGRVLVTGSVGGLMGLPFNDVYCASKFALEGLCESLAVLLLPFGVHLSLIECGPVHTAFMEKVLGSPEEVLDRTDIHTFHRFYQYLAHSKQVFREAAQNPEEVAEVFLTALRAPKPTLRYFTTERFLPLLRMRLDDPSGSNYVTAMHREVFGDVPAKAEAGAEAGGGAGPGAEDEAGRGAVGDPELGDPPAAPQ
Experimental: as §1, §2
(§4) The 17β-HSD1 inhibition assay was performed similarly to the h17β-HSD2 test. The human cytosolic enzyme was incubated with NADH [500 μM] while the mouse recombinant enzyme was reacted with NADPH [500 μM].Test compound and a mixture of unlabelled- and [^3H]-E1 (final concentration: 500 nM, 0.15 μCi) were added and mixed for 10 min at 37°C. Further treatment of the samples and HPLC separation was carried out as mentioned above for h17β-HSD2.

m17β-HSD2 = molecular target: T3, m17β-HSD2 (Mus musculus, UniProt P51658); experiment: Inhibition of m17β-HSD2 in cell-free assay; format: biochemical; conditions: for inhibition at 1 µM: read-out: % inh. at 1 μM m17β-HSD2
T3 construct: The microsomal fraction (m17β-HSD2) was obtained from mouse liver as described for h17β-HSD2; tissue Pharmacelsus GmbH (mouse livers); host or cells: mouse liver, microsomal fraction
T3 sequence (P51658 1-381): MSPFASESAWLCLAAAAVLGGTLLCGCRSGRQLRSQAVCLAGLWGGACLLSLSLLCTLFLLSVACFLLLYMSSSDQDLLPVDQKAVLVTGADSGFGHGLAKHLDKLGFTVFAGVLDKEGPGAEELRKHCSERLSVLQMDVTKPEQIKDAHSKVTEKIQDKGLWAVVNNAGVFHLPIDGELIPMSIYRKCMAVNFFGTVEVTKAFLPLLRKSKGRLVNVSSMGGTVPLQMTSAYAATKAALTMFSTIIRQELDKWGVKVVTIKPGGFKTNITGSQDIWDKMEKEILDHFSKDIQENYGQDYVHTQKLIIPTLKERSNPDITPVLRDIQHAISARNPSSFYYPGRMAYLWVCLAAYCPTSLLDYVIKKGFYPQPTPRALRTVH
Experimental: as §1
The microsomal fraction (m17β-HSD2) was obtained from mouse liver as described for h17β-HSD2. Inhibitory activities were evaluated by a method identical to the one described for the human enzyme.
as §3

ERβ = ERβ (Homo sapiens, UniProt Q92731); experiment: Estrogen receptor affinity in a cell-free assay (ERβ); format: binding; conditions: 1000-fold excess relative to E2; recombinant human ERβ
Chain of ERβ (Q92731 whole entry): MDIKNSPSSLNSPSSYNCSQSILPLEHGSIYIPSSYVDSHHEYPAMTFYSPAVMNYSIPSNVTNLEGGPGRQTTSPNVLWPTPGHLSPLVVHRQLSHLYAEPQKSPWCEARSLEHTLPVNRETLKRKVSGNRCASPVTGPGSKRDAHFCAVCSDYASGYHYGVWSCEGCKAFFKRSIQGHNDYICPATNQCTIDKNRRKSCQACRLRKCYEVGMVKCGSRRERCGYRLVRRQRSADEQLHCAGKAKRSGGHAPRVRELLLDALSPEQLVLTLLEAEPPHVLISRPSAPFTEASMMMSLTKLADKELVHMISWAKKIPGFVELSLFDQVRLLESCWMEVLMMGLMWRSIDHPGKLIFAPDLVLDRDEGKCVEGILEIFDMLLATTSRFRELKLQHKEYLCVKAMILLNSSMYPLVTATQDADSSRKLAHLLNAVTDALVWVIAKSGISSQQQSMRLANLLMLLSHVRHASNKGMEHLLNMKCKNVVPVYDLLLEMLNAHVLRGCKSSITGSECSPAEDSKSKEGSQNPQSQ
Experimental: (§5) The binding affinity of selected compounds to ERα and ERβ was determined according to the recommendations of the US Environmental Protection Agency (EPA) by their Endocrine Disruptor Screening Program (EDSP)[24] using recombinant human proteins.
(§6) The potential inhibitors were dissolved in DMSO (5% final concentration). […] After incubation, ligand-receptor complexes were selectively bound to hydroxyapatite (83.5 g/LinTE-buffer). The bound complex was washed three times and resuspended in ethanol. For radiodetection, scintillator cocktail (Quickszint 212, Zinsser Analytic, Frankfurt) was added and samples were measured in a liquid scintillation counter (1450 LSC & Luminescence Counter, Perkin Elmer).
(§7) After the assay was established and validated, a modification was made to increase throughput.

ERα = molecular target: T4, ERα (Homo sapiens, UniProt P03372); experiment: Estrogen receptor affinity in a cell-free assay (ERα); format: binding; conditions: 1000-fold excess relative to E2; recombinant human ERα
T4 sequence (P03372 1-595): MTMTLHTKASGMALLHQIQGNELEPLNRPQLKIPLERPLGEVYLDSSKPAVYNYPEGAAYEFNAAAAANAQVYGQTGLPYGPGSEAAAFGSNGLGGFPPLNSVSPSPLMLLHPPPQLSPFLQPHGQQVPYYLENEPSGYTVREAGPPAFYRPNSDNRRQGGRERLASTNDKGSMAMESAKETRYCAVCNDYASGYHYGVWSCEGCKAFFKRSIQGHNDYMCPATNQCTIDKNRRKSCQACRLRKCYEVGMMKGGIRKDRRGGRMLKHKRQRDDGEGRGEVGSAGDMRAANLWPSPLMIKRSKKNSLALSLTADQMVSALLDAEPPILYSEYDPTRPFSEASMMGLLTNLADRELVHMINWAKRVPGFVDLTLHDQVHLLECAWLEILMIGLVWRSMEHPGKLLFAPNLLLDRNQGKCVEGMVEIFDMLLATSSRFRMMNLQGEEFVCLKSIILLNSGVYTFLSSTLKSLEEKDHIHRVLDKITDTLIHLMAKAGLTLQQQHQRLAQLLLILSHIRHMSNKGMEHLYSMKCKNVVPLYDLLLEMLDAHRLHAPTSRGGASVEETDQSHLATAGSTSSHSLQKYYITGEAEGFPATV
Experimental: as §5, §6, §7

m17β-HSD1 = molecular target: T5, m17β-HSD1 (Mus musculus, UniProt P51656); experiment: Inhibition of m17β-HSD1 in cell-free assay; format: biochemical; conditions: recombinant m17β-HSD1, substrate E1 [500 nM], NADPH [500 μM]
T5 construct: host or cells: HEK 293 cells, transient transfection, 1000 g supernatant of the lysate
T5 sequence (P51656 1-344): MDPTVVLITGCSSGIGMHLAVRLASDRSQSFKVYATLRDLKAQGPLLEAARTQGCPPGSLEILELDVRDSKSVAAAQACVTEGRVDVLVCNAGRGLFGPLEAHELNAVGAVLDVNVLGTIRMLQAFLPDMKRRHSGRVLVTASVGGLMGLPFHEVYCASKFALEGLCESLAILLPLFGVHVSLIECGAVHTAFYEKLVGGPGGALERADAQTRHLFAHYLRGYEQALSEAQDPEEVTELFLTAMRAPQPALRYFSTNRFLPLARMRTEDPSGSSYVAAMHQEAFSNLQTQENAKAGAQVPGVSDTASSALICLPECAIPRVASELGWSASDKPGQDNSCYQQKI
Experimental: as §1
Recombinant m17β-HSD1 enzyme was produced by transfection of HEK 293 cells with a m17β-HSD1 expression plasmid (coding sequence of NM_010475 in pCMV6Entry vector, OriGene Technologies, Inc.) according to a described procedure. 48 hours after transfection cells were homogenized by sonication (3 x 10 s) in a buffer containing saccharose (40 mMTris, 250 mM saccharose, 5 mM EDTA, 7 mM DTT, 1 mM PMSF, pH 7,5). Cell lysate was centrifuged (1000 g, 15 min, 4°C) and 20% glycerol was added to the supernatant before aliquots were frozen and stored at -70°C.
as §4

| inhibition at 1 µM (h17β-HSD2) [%] | inhibition at 1 µM (h17β-HSD1) [%] | SMILES | half-life at 1 μM [1] [h] | inhibition at 1 µM (m17β-HSD2) [%] | melting point [°C] | displacement of E2 from ERβ (ERβ) [%] | IC50 (h17β-HSD2) [nM] | s.f. (selectivity factor) = IC50(17β-HSD1)/IC50(17β-HSD2) (h17β-HSD2) | displacement of E2 from ERα (ERα) [%] | IC50 (h17β-HSD1) [nM] | IC50 (m17β-HSD2) [nM] | inhibition of m17β-HSD1 at 1 μM (m17β-HSD1) |
| --- | --- | --- | --- | --- | --- | --- | --- | --- | --- | --- | --- | --- |
| 44 | < 10 | COc1cccc(-c2ccc(C(=O)N(C)c3cccc(C)c3)cc2)c1 [Compound 5a, 3'-Methoxy-N-methyl-N-(m-tolyl)-[1,1'-biphenyl]-4-carboxamide] | 1.93 | 56 |  |  |  |  |  |  |  |  |
|  |  | COc1cccc(-c2ccc(C(=O)N(C)c3cccc(OC)c3)cc2)c1 [Compound 7a, 3'-Methoxy-N-(3-methoxyphenyl)-N-methyl-[1,1'-biphenyl]-4-carboxamide] |  |  | 131 to 134 | ≤ 20 | 330 | 20 | ≤ 20 | 6400 | 290 |  |
|  |  | COc1ccc(-c2ccc(C(=O)N(C)c3cccc(OC)c3)cc2)cc1 [Compound 10a, 4'-Methoxy-N-(3-methoxyphenyl)-N-methyl-[1,1'-biphenyl]-4-carboxamide] |  | 66 | 128 to 130 |  | 710 | 38 |  | 27000 |  | None of the tested compounds showed any inhibition |
|  |  | COc1cccc(N(C)C(=O)c2ccc(-c3cccc(Cl)c3)cc2)c1 [Compound 14a, 3'-Chloro-N-(3-methoxyphenyl)-N-methyl-[1,1'-biphenyl]-4-carboxamide] | 1.37 | 73 |  |  | 950 | 13 |  | 12600 |  | None of the tested compounds showed any inhibition |
| 64 | 35 | COc1cccc(N(C)C(=O)c2ccc(-c3cccc(OC)c3F)cc2)c1 [Compound 19a, 2'-Fluoro-3'-methoxy-N-(3-methoxyphenyl)-N-methyl-[1,1'-biphenyl]-4-carboxamide] |  | 67 | 125 to 127 |  |  |  |  |  |  | None of the tested compounds showed any inhibition |
|  |  | COc1cccc(N(C)C(=O)c2ccc(-c3cccc(C)c3F)cc2)c1 [Compound 20a, 2'-Fluoro-N-(3-methoxyphenyl)-N,3'-dimethyl-[1,1'-biphenyl]-4-carboxamide] | 1.73 | 48 | 91 to 94 |  | 460 | 24 |  | 11300 |  |  |
|  |  | Cc1cccc(N(C)C(=O)c2ccc(-c3ccc4c(c3)OCO4)cc2)c1 [Compound 23a, 4-(Benzo[d][1, 3]dioxol-5-yl)-N-methyl-N-(m-tolyl)benzamide] |  | 70 | 111 to 113 |  | 560 | 20 |  | 10900 |  | None of the tested compounds showed any inhibition |

Source: article PMC4521925, “17β-Hydroxysteroid Dehydrogenase Type 2 Inhibition: Discovery of Selective and Metabolically Stable Compounds Inhibiting Both the Human Enzyme and Its Murine Ortholog” (PLoS ONE, 2015)
